Paper PMC8151329, “Modulation of γ-Secretase Activity by a Carborane-Based Flurbiprofen Analogue” (Molecules, 2021)
Read-outs that look alike come from different tables or passages of the source.

How the values were obtained:
ovine COX-1 = target: T1, ovine COX-1 (Ovis aries, UniProt P05979); test: COX Fluorescent Inhibitor Screening Assay Kit, COX-1; type: biochemical
T1 construct: purchased Cayman Chemical Company 700100
T1 sequence (P05979 25-600): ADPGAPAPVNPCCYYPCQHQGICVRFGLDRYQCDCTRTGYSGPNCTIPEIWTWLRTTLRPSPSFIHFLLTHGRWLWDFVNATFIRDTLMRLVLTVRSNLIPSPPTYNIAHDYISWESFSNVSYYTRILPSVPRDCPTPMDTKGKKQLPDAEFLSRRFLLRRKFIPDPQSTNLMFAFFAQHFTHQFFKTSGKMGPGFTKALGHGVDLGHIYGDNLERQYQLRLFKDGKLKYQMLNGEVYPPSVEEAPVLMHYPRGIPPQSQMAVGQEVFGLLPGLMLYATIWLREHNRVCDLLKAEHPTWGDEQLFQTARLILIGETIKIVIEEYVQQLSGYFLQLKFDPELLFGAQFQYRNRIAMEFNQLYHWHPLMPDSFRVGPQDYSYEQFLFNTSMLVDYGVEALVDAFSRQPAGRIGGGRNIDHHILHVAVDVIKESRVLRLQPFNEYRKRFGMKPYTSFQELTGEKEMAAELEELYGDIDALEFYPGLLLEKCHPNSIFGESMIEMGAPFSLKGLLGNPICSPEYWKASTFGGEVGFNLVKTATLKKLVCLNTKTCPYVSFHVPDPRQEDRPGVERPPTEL
Description: In this work, 100 µM arachidonic acid was applied according to the manufacturer’s instructions for the “COX Fluorescent Inhibitor Screening Assay Kit”.

human COX-2 = target: T2, human COX-2 (Homo sapiens, UniProt P35354); test: COX Fluorescent Inhibitor Screening Assay Kit, COX-2; type: biochemical
T2 construct: purchased Cayman Chemical Company 700100
T2 sequence (P35354 18-604): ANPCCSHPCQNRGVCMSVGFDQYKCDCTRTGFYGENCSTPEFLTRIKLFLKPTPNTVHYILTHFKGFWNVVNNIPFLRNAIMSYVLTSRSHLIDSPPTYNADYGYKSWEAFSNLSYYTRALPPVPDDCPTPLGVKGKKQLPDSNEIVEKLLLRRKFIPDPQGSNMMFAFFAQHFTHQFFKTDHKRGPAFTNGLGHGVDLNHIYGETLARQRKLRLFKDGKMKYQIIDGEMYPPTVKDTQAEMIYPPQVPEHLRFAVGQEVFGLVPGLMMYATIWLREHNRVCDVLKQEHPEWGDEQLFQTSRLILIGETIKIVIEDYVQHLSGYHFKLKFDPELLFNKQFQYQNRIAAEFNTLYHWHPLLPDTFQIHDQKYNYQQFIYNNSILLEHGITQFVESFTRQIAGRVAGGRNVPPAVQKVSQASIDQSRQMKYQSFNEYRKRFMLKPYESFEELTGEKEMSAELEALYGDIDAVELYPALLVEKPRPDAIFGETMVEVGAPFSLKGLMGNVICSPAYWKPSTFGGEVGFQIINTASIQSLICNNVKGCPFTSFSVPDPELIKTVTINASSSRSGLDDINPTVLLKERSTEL

logD7.4 by HPLC method = type: physicochemical; settings: pH 7.4
From the text: The measured variances in logD7.4 measurements between the two compounds and the two methods lie in the typical range of the method, and both compounds can be seen as equally hydrophobic. This confirms that the replacement of a phenyl ring with a carborane moiety indeed increased the hydrophobicity and could therefore result in an increased BBB penetration of compound 5 compared to flurbiprofen.
In both cases, the eluent consisted of methanol and a 0.01 M phosphate buffer (pH = 7.4); the applied gradient was 0 min at 70% methanol, 10 min at 100% methanol, 20 min at 100% methanol at a flow rate of 0.6 mL/min.

A375 = test: MTT cytotoxicity test A375; type: cell-based, human; settings: A375, 48 h, up to 100 µM, mean ± SD
Description: (§1) The used human tumour (i.e., melanoma A375, colon cancer HCT116 and HT29, and glioblastoma LN229 and U251) and rodent tumour (i.e., mouse melanoma B16 and B16–F10; rat glioma C6) cell lines as well as murine transformed non-malignant fibroblast cell line NIH/3T3 differed in their rates of COX-1 and COX-2 expression.
(§2) Cytotoxicity was determined by conducting MTT and CV assays using cell viability as an indicator [67]. All measurements were carried out in triplicates.

HCT116 = test: MTT cytotoxicity test HCT116; type: cell-based, human; settings: HCT116, 48 h, up to 100 µM, mean ± SD
Description: as §1, §2

HT29 = test: MTT cytotoxicity test HT29; type: cell-based, human; settings: HT29, 48 h, up to 100 µM, mean ± SD
Description: as §1, §2

LN229 = test: MTT cytotoxicity test LN229; type: cell-based, human; settings: LN229, 48 h, up to 100 µM, mean ± SD
Description: as §1, §2

U251 = test: MTT cytotoxicity test U251; type: cell-based, human; settings: U251, 48 h, up to 100 µM, mean ± SD
Description: as §1, §2

B16 = test: MTT cytotoxicity test B16; type: cell-based, mouse; settings: B16, 48 h, up to 100 µM, mean ± SD
Description: as §1, §2

B16–F10 = test: MTT cytotoxicity test B16–F10; type: cell-based, mouse; settings: B16–F10, 48 h, up to 100 µM, mean ± SD
Description: as §1, §2

NIH/3T3 = test: MTT cytotoxicity test NIH/3T3; type: cell-based, mouse; settings: NIH/3T3, 48 h, up to 100 µM, mean ± SD
Description: as §1, §2

C6 = test: MTT cytotoxicity test C6; type: cell-based, rat; settings: C6, 48 h, up to 100 µM, mean ± SD
Description: as §1, §2

γ-secretase = target: T3, γ-secretase (Homo sapiens, UniProt P49768); type: cell-based; settings: HEK/sw cells
T3 construct: endogenous in cells; host or cells: HEK293 cells stably overexpressing Swedish-mutant APP (HEK/sw)
Description: The γ-secretase modulator (GSM) activity of compound 5 was tested on human embryonic kidney (HEK) 293 cells stably overexpressing ”Swedish mutant” APP (HEK/sw), a well-established cell culture model to assess GSM activity. The effect of compound 5 on Aβ production was analysed in comparison to flurbiprofen over a relevant and cell tolerable concentration range (Figure 1).
Nearly confluent (80%) HEK/sw cells were treated with the indicated concentrations of compound 5 or flurbiprofen ((±)-2-fluoro-α-methyl-4-biphenylacetic acid; F8514, Sigma–Aldrich, St. Louis, MO, USA) as described before. Cells treated with DMSO or 1 µM GSM-1 were used as negative and positive controls, respectively. After overnight treatment, the conditioned medium was collected, cleared by centrifugation (10 min, 4 °C, 16,000× g), and the levels of secreted Aβ38, Aβ40, and Aβ42 were analysed using an established Aβ species-specific sandwich immunoassay purchase from Meso Scale Discovery (MSD, Rockville, MD, USA).

[1] = parameters: method as in PMID 25513709; settings: shake flask; cited from earlier work
[2] = enzyme-based assay, result in words

Molecule | inhibitory activity on COX-1 (ovine COX-1; [2]) | IC50 (ovine COX-1; ovine COX-1, fluorescence kit, 100 µM arachidonic acid, read-out: IC50 inhibition of COX-1) [µM] | inhibitory activity on COX-2 (human COX-2; [2]) | IC50 (human COX-2; human COX-2, fluorescence kit, 100 µM arachidonic acid, read-out: IC50 inhibition of COX-2) [µM] | logD7.4 (logD7.4 by HPLC method; HPLC method 1: Chromolith Speed ROD RP-18E 50) | logD7.4 (logD7.4 by HPLC method; HPLC method 2 (standard conditions): Asahipak ODP-50 4B 4.6 × 50) | IC50 (A375) [µM] | IC50 (HCT116) [µM] | IC50 (HT29) [µM] | IC50 (LN229) [µM] | IC50 (U251) [µM] | IC50 (B16) [µM] | IC50 (B16–F10) [µM] | IC50 (NIH/3T3) [µM] | IC50 (C6) [µM] | sum of all measured Aβ species (Aβ38, Aβ40 and Aβ42) vs DMSO control (γ-secretase; 150 µM) | effect on Aβ42:Aβ40 ratio (γ-secretase; extracellular Aβ) | ratio of short Aβ38 to longer Aβ42 (γ-secretase processivity) (γ-secretase; overnight treatment) | effect on Aβ42 (ratio of total Aβ) (γ-secretase; overnight treatment, conditioned medium) | logD7.4 [1]
2-[4-(1,7-Dicarba-closo-dodecaboran-9-yl(12))phenyl]propionic acid [Compound 5] | No inhibitory activity | > 100 | No inhibitory activity | > 100 | 2.00 | 1.86 | 96 ± 5.9 | > 100 | > 100 | 95 ± 7.1 | 77.5 ± 7.2 | 79 ± 2.4 | 74.7 ± 0.9 | 90 ± 10 | 92.8 ± 4.8 | did not decrease significantly | lowering | increased | clear dose-dependent decrease | 
CC(C(=O)O)c1ccc(-c2ccccc2)c(F)c1 (racemic) [Flurbiprofen, (±)-2-fluoro-α-methyl-4-biphenylacetic acid] |  |  |  |  |  |  |  |  |  |  |  |  |  |  |  |  |  |  |  | 0.91
